{"source": "patent US12428377B2", "about": "“Sodium-hydrogen exchanger 3 inhibitor compounds” (Eli Lilly and Company, priority 2019, dated 2025)", "key": {"NPT2b": {"target": "T1, NPT2b (Homo sapiens, UniProt O95436)", "T1 sequence (O95436 1-690)": "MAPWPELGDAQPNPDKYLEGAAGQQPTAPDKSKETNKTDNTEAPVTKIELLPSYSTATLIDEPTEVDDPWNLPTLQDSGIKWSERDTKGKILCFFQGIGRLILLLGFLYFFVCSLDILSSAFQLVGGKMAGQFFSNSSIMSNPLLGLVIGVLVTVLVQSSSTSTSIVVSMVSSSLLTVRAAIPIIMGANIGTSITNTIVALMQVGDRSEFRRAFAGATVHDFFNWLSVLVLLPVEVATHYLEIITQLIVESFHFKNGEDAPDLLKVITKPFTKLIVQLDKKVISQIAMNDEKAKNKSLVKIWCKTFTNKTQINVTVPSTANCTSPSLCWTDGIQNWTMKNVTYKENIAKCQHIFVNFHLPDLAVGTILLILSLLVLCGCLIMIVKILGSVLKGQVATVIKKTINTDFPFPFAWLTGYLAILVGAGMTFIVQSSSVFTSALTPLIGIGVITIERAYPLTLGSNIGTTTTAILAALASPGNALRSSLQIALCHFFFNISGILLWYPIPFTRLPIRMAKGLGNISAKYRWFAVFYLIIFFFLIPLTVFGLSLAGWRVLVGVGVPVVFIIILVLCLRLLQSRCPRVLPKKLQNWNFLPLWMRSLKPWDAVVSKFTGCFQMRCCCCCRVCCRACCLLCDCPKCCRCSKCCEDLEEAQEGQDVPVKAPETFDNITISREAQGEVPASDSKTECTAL", "assay": "NPT2b inhibition (selectivity)"}, "Male Sprague-Dawley rats": {"system": "Male Sprague-Dawley rats", "assay": "Effect of Example 2 on sodium and phosphate absorption (urinary excretion after oral NaH2PO4 bolus)", "type": "in vivo, rat", "details": "4 h urine; for ED50: Rattus norvegicus, oral, NaH2PO4 bolus 690 mg/kg; for Ratio of Urinary-to-Dietary Phosphorus / Ratio of Urinary-to-Dietary Sodium: mean ± SEM", "method": "Effect of Example 2 on Sodium and Phosphate Absorption Urinary sodium and phosphate excretion following an oral bolus dose of sodium phosphate is an indirect measure of sodium and phosphate absorption in the intestine. Male Sprague-Dawley rats at an age of about 7 weeks with body weights ranging from 195 to 221 g are randomized into groups based on equal mean body weights. Example 2 at 0.3 mg/mL (final dose 3 mg/kg dosed in 10 mL/kg volume) is formulated by adding 1% HEC to a glass vial containing a pre-weighed amount of compound, and then probe sonicating until it appears as a uniform suspension. […] The subsequent dosing solutions of Example 2 are prepared by serial dilutions with 1% HEC. NaH2PO4 at 34.5 mg/ml (final dose 690 mg/kg dosed in 20 ml/kg volume) is formulated by adding sterile water. On the day of the study, the animals are placed into clean cages without food but with access to water for a 4 h fast before the study. Rats are orally dosed with vehicle or varying doses of Example 2. 15 min later, animals are dosed with sterile water or NaH2PO4, then immediately transferred to metabolic cages. Urine samples are collected for 4 h. Net urine volume is recorded. Urinary sodium, creatinine, and phosphate are assessed using a clinical biochemistry analyzer. Values expressed as the ratio of urinary-to-dietary phosphorus or sodium are calculated and presented as mean±SEM. Curves are fitted with a 4-parameter logistic curve fitting tool GraphPod Prism 6 to calculate the ED50. For the purpose of curve fitting, the dose of Example 2 is artificially set to 0.00001 mg/kg in the software for the vehicle-alone group."}, "[1]": {"system": "male spontaneously hypertensive (SHR) rats", "assay": "Effect on blood pressure (telemetry) in spontaneously hypertensive rats", "type": "in vivo, rat", "details": "0.15 mg/kg/day", "description": "Effect of Example 2 on Blood Pressure Male spontaneously hypertensive (SHR) rats weighing 250-300 g with age of 7 weeks are acclimated to a reversed light cycle (8:00 am lights off and 8:00 pm lights on) and fed regular chow and water ad libitum. Implantable telemetry devices (model TA11PA-C40, Data Sciences International) are implanted into the abdominal aorta. After recovering from surgery, rats are placed in individual cages in a quiet telemetry facility room for measuring blood pressure (mean arterial pressure, MAP) and heart rate (HR). Digitized pressure signals are acquired for 20 second every 5 min using DSI Dataquest IV 4.0 software. The 31 SHR rats are randomized by MAP into two groups and treated twice daily for 14 days with vehicle (n=15) (10% acacia, 0.05% antifoam in purified water) or 0.15 mg/kg/day Example 2. The first dose is given between 6:00 and 6:30 am (2 h prior to lights off) and the second dose is given between 4:00 and 4:30 pm. The daily food consumption and body weight gain are also monitored. MAP, HR, and body weight (BW) data are analyzed by repeated measures analysis of covariance (ANCOVA) with baseline as the covariate. Food consumption (FC) data are analyzed by repeated measures analysis of variance (ANOVA). The mean blood pressure across the time course of the study (days 1-14) for the group treated with 0.15 mg/kg/day of Example 2 is 4.83 mm Hg less than that of the control group with a p-value of 0.0007 (Table 1)."}}, "note": "Where two headings read alike, the source gives them in different places.", "data": [{"smiles": "CN1Cc2c(Cl)cc(Cl)cc2[C@H](c2cccc(S(=O)(=O)NCCOCCOCCN/C(=N\\C(N)=O)NCCCCN/C(=N/C(N)=O)NCCOCCOCCNS(=O)(=O)c3cccc([C@@H]4CN(C)Cc5c(Cl)cc(Cl)cc54)c3)c2)C1.Cl.Cl", "note": "[Example 2, [[4-[[N′-Carbamoyl-N-[2-[2-[2-[[3-[(4S)-6,8-dichloro-2-methyl-3,4-dihydro-1H-isoquinolin-4-yl]phenyl]sulfonylamino]ethoxy]ethoxy]ethyl]carbamimidoyl]amino]butylamino]-[2-[2-[2-[[3-[(4S)-6,8-dichloro-2-methyl-3,4-dihydro-1H-isoquinolin-4-yl]phenyl]sulfonylamino]ethoxy]ethoxy]ethylamino]methylene]urea dihydrochloride]", "values": [{"measurement": "IC50", "setting": "NPT2b", "value": 58.4, "unit": "µM"}, {"measurement": "ED50", "setting": "Male Sprague-Dawley rats; read-out: ED50 on sodium excretion", "value": 0.058, "unit": "mg/kg"}, {"measurement": "ED50", "setting": "Male Sprague-Dawley rats; read-out: ED50 on urinary phosphorus excretion", "value": 0.041, "unit": "mg/kg"}, {"measurement": "Ratio of Urinary-to-Dietary Phosphorus", "setting": "Male Sprague-Dawley rats; oral 0.001 mg/kg", "value": "0.337 ± 0.017"}, {"measurement": "Ratio of Urinary-to-Dietary Sodium", "setting": "Male Sprague-Dawley rats; oral 0.001 mg/kg", "value": "0.326 ± 0.042"}, {"measurement": "Ratio of Urinary-to-Dietary Phosphorus", "setting": "Male Sprague-Dawley rats; oral 0.003 mg/kg", "value": "0.350 ± 0.023"}, {"measurement": "Ratio of Urinary-to-Dietary Sodium", "setting": "Male Sprague-Dawley rats; oral 0.003 mg/kg", "value": "0.413 ± 0.055"}, {"measurement": "Ratio of Urinary-to-Dietary Phosphorus", "setting": "Male Sprague-Dawley rats; oral 0.01 mg/kg", "value": "0.320 ± 0.042"}, {"measurement": "Ratio of Urinary-to-Dietary Sodium", "setting": "Male Sprague-Dawley rats; oral 0.01 mg/kg", "value": "0.290 ± 0.06"}, {"measurement": "Ratio of Urinary-to-Dietary Phosphorus", "setting": "Male Sprague-Dawley rats; oral 0.03 mg/kg", "value": "0.268 ± 0.04"}, {"measurement": "Ratio of Urinary-to-Dietary Sodium", "setting": "Male Sprague-Dawley rats; oral 0.03 mg/kg", "value": "0.276 ± 0.06"}, {"measurement": "Ratio of Urinary-to-Dietary Phosphorus", "setting": "Male Sprague-Dawley rats; oral 0.1 mg/kg", "value": "0.197 ± 0.045"}, {"measurement": "Ratio of Urinary-to-Dietary Sodium", "setting": "Male Sprague-Dawley rats; oral 0.1 mg/kg", "value": "0.105 ± 0.042"}, {"measurement": "Ratio of Urinary-to-Dietary Phosphorus", "setting": "Male Sprague-Dawley rats; oral 0.3 mg/kg", "value": "0.168 ± 0.027"}, {"measurement": "Ratio of Urinary-to-Dietary Sodium", "setting": "Male Sprague-Dawley rats; oral 0.3 mg/kg", "value": "0.039 ± 0.010"}, {"measurement": "Ratio of Urinary-to-Dietary Phosphorus", "setting": "Male Sprague-Dawley rats; oral 1 mg/kg", "value": "0.191 ± 0.039"}, {"measurement": "Ratio of Urinary-to-Dietary Sodium", "setting": "Male Sprague-Dawley rats; oral 1 mg/kg", "value": "0.051 ± 0.027"}, {"measurement": "Ratio of Urinary-to-Dietary Phosphorus", "setting": "Male Sprague-Dawley rats; oral 3 mg/kg", "value": "0.144 ± 0.009"}, {"measurement": "Ratio of Urinary-to-Dietary Sodium", "setting": "Male Sprague-Dawley rats; oral 3 mg/kg", "value": "0.022 ± 0.009"}, {"measurement": "Effect on body weight (BW)", "setting": "[1]; 14 days", "value": "No significant effect"}, {"measurement": "Effect on food consumption (FC)", "setting": "[1]; 14 days", "value": "No significant effect"}, {"measurement": "Effect on heart rate (HR)", "setting": "[1]; 14 days", "value": "No significant effect"}, {"measurement": "Difference in mean blood pressure vs vehicle", "setting": "[1]; days 1-14, less than control, p-value 0.0007", "value": 4.83, "unit": "mm Hg"}, {"measurement": "Mean blood pressure over days 1-14", "setting": "[1]; twice daily for 14 days", "value": 153.33, "unit": "mm Hg"}]}]}
